{
  "source": "paper PMC6697583",
  "about": "(Cancer research, 2019)",
  "target": "T1, heme oxygenase 1 (HO-1) (Homo sapiens, UniProt P09601)",
  "T1 sequence (P09601 1-288)": "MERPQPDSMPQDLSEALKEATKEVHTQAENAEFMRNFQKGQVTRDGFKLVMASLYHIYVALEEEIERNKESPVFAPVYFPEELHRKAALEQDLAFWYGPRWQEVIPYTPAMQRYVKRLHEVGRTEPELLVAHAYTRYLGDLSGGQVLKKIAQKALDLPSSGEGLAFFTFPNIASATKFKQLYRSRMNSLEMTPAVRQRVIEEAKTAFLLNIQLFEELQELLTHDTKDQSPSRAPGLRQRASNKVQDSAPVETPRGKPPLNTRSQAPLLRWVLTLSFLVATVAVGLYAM",
  "assay": "bilirubin fluorescence assay on purified HO-1",
  "format": "biochemical",
  "data": [
    {"smiles": "Cc1c(O)ccc2c1OC[C@@H](c1ccc(O)cc1)[C@H]2c1ccc(O)cc1", "note": "[ME-344, (3R,4S)-3,4-bis(4-hydroxyphenyl)-8-methyl-3,4-dihydro-2H-chromen-7-ol]", "values": [
      {"measurement": "IC50", "value": 17.6, "unit": "nM"}
    ]}
  ]
}
